Measurements from article PMC11513924, “Addressing the Intracellular Vestibule of the Plasmodial Lactate Transporter PfFNT by p-Substituted Inhibitors Amplifies In Vitro Activity” (Journal of Medicinal Chemistry, 2024).
Where two headings read alike, the source gives them in different places.

Columns and labels:
PfFNT [1] = molecular target: T1, PfFNT (Plasmodium falciparum, UniProt O77389); test: Yeast-based PfFNT 14C-lactate transport assay; type: cell-based
T1 construct: expressed in transfected cells; membranes solubilized
T1 sequence (O77389 1-309): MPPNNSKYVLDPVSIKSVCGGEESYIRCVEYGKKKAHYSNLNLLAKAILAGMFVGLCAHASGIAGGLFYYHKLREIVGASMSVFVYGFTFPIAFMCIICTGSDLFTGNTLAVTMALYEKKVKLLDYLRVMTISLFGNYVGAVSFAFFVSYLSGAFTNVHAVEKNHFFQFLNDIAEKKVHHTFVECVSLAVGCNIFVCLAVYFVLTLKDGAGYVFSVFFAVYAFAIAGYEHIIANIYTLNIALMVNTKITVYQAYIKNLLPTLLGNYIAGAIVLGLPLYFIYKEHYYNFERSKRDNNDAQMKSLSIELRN
Method: Lactate transport functionality of PfFNT was assayed as described before.[4] Briefly, Saccharomyces cerevisiae W303-1A jen1Δady2Δcells[32] (MATa, can1-100, ade2-loc, his3-11-15, leu2-3,-112, trp1-1-1, ura3-1, jen1::kanMX4, ady2::hphMX4) kindly provided by M. Casal expressing PfFNT was grown at 29 °C to an OD600 of 1 (±0.1). Harvested cells were resuspended to an OD600 of 50 (±5) in 50 mM HEPES/Tris, pH 6.8 (±0.1). 10–15 min prior to the assay, 80 μL of yeast suspension were added to 1 μL of DMSO with or without inhibitor in a 1.5 mL reaction tube at 18 °C. Twenty μL of L-lactate solution spiked with [1-^14C]-L-lactate (Hartmann Analytic) was added yielding a 1 mM inward gradient with 0.04 μCi label. Transport was stopped after 30 s by abrupt dilution with 1 mL of ice-cold water, vacuum filtration via GF/C filter membranes (Whatman), and washing with 7 mL of ice-cold water. The radio label was analyzed by liquid scintillation counting in 3 mL of scintillation cocktail (Rotiszint eco plus, Carl Roth) using a Packard TriCarb 2900 TR (PerkinElmer Inc.).
(§1) Transport assays in yeast were done in triplicate biological replicates. At least nine technical replicates were measured around the IC50 value, concentrations with no or full inhibition were determined from at least three technical replicates. EC50-values were determined from 2 to 4 biological replicates. IC50 and EC50 curves were fitted by the Hill equation with variable slope (Graph Pad Prism 10). Error bars denote ± SEM (for n ≥ 3) or ± range (for n = 2). For the EC50-value of 7a the error of the fitting of the curve is given. Cytotoxicity was determined from biological triplicates; error is shown as SEM.

[2] = test system: Plasmodium falciparum 3D7 parasites; test: P. falciparum 3D7 culture growth assay in erythrocytes (in vitro activity); type: cell-based; details: for EC50 / activity at 0.05 µM / activity at 0.1 µM / activity at 0.2 µM: Plasmodium falciparum, 3D7, Erythrocyte, 48 h; for EC50: read-out: EC50 (in vitro, 3D7); for activity at 0.05 µM: 50 nM compound, read-out: % Growth at 50 nM (in vitro, 3D7); for activity at 0.05 µM / activity at 0.1 µM / activity at 0.2 µM: % of untreated control; for activity at 0.1 µM: 100 nM compound, read-out: % Growth at 100 nM (in vitro, 3D7); for activity at 0.2 µM: 200 nM compound, read-out: % Growth at 200 nM (in vitro, 3D7)
Method: The parasitemia was measured using an LSR II FACS (BD Biosciences) as described.[34],[35] Growth was assessed as % of untreated control. EC50 curves were plotted using Graph Pad Prism.
as §1, with “EC50-values were determined from 2 to 4 biological replicates.” left out, “For the EC50-value of 7a the error of the fitting of the curve is given.” left out

PfFNT [3] = molecular target: T1, PfFNT; test: Fluorescence cross-correlation spectroscopy (FCCS) competition binding to solubilized PfFNT-GFP
Method: FCCS measurements were conducted and analyzed as before.[20],[30] Briefly, membranes of stably transfected cells expressing PfFNT with a C-terminal GFP (green) were solubilized. BH267.meta 2 fused with DY647 (red) was used as a tracer to monitor the binding of compounds in a competition assay. Assays were done in […] glass bottom plates (cat. no. PS96B-G175, SWISSCI, Switzerland) using a plate reader (Insight, Evotec Technologies, Germany) fitted with a U-Apo300 40× water immersion lens, NA 1.15 (Olympus, Japan). Excitation was done with an argon-ion laser (488 nm) and a helium–neon laser (633 nm). Fluorescence fluctuations were recorded 10 times for 5 s per sample and fitted using FCS+ plus Analyze (PerkinElmer software). Initially, IC50 values were determined from the concentration of the dual labeled complex titrated against a competitor in a range of 100 pM to 100 μM (Figure S1). Then, Ki values were calculated using the Cheng Prusoff equation[31] based on the previously determined KD value for the BH267.meta-DY647 tracer.[20]

[4] = 14C-lactate transport, PfFNT wild type, read-out: IC50 (transport, yeast)

Compound	IC50 (PfFNT [1]; [4]) [µM]	EC50 ([2]; cultures in erythrocytes) [µM]	Ki (PfFNT [3]) [µM]	IC50 (PfFNT [1]) [µM]	EC50 [2] [µM]	Ki (PfFNT [3]; competition against BH267.meta-DY647 tracer, Cheng Prusoff, read-out: Ki (FCCS, protein)) [µM]	activity at 0.05 µM [2] [%]	activity at 0.1 µM [2] [%]	activity at 0.2 µM [2] [%]	times lower in vitro activity (vs 7e) ([2]; 3D7)
O=C(/C=C(\O)C(F)(F)c1ccccc1)c1cccnc1 [3a, 4,4-Difluoro-3-hydroxy-4-phenyl-1-(pyridin-3-yl)but-2-en-1-one]	1.14 ± 0.2	36.6 ± 11.1	5.84 ± 0.96							
O=C(/C=C(\O)C(F)(F)C(F)(F)C(F)(F)F)c1cccnc1 [3b, 4,4,5,5,6,6,6-Heptafluoro-3-hydroxy-1-(pyridin-3-yl)hex-2-en-1-on]				0.34 ± 0.05	1.17 ± 0.03	0.03 ± 0.003				
COC(F)(F)C(F)(F)/C(O)=C/C(=O)c1cccnc1 [3c, 4,4,5,5-Tetrafluoro-3-hydroxy-5-methoxy-1-(pyridin-3-yl)pent-2-en-1-one]	0.31 ± 0.01	3.39 ± 0.01	0.093 ± 0.002							
O=C(/C=C(\O)C(F)(F)C(F)(F)Cl)c1cccnc1 [3d, 5-Chloro-4,4,5,5-tetrafluoro-3-hydroxy-1-(pyridin-3-yl)pent-2-en-1-one]	0.18 ± 0.03	0.35 ± 0.03	0.037 ± 0.021							
FC(F)(F)C(F)(F)c1nc(-c2cccnc2)n[nH]1 [4a, 3-[5-(1,1,2,2,2-Pentafluoroethyl)-1H-1,2,4-triazol-3-yl]pyridine]	8.44 ± 1.85		1.61 ± 0.298							
FC(F)(F)C(F)(F)c1cc(-c2cccnc2)n[nH]1 [4b, 3-[5-(1,1,2,2,2-Pentafluoroethyl)-1H-pyrazol-3-yl]pyridine]	~1000		> 80							
O=C(/C=C(\O)C(F)(F)C(F)(F)F)c1ccco1 [5a, 4,4,5,5,5-Pentafluoro-1-(furan-2-yl)-3-hydroxypent-2-en-1-one]	0.17 ± 0.06	1.98 ± 0.04	0.037 ± 0.005							
O=C(/C=C(\O)C(F)(F)C(F)(F)F)c1ccoc1 [5b, 4,4,5,5,5-Pentafluoro-1-(furan-3-yl)-3-hydroxypent-2-en-1-one]	0.1 ± 0.01	0.86 ± 0.08	0.072 ± 0.006							
O=C(/C=C(\O)C(F)(F)C(F)(F)F)c1cccs1 [5c, 4,4,5,5,5-Pentafluoro-3-hydroxy-1-(thiophen-2-yl)pent-2-en-1-one]	0.11 ± 0.01	1.92 ± 0.17	0.045 ± 0.025							
O=C(/C=C(\O)C(F)(F)C(F)(F)F)c1ccsc1 [5d, 4,4,5,5,5-Pentafluoro-3-hydroxy-1-(thiophen-3-yl)pent-2-en-1-one]	0.15 ± 0.01	1.87 ± 0.15	0.085 ± 0.004							
O=C(/C=C(\O)C(F)(F)C(F)(F)F)c1ccc(NCc2ccccc2)nc1 [7a, 1-[6-(Benzylamino)pyridin-3-yl]-4,4,5,5,5-pentafluoro-3-hydroxypent-2-en-1-one]	0.51 ± 0.15	0.0779	0.032 ± 0.015				71	32	14	
Nc1ccc(C(=O)/C=C(\O)C(F)(F)C(F)(F)F)cn1 [7b, 1-(6-Aminopyridin-3-yl)-4,4,5,5,5-pentafluoro-3-hydroxypent-2-en-1-one]	0.19 ± 0.02		0.031 ± 0.006				79	65	29	at least 3 times
CNc1ccc(C(=O)/C=C(\O)C(F)(F)C(F)(F)F)cn1 [7c, 4,4,5,5,5-Pentafluoro-3-hydroxy-1-(6-(methylamino)pyridin-3-yl)pent-2-en-1-one]	0.13 ± 0.02		0.036 ± 0.012				103	97	85	
CCNc1ccc(C(=O)/C=C(\O)C(F)(F)C(F)(F)F)cn1 [7d, 1-(6-(Ethylamino)pyridin-3-yl)-4,4,5,5,5-pentafluoro-3-hydroxypent-2-en-1-one]	0.12 ± 0.01		0.021 ± 0.005				45	13	6	
CCCCNc1ccc(C(=O)/C=C(\O)C(F)(F)C(F)(F)F)cn1 [7f, 1-(6-(Butylamino)pyridin-3-yl)-4,4,5,5,5-pentafluoro-3-hydroxypent-2-en-1-one]	0.33 ± 0.01		0.027 ± 0.004				25	15	10	
CCCCCNc1ccc(C(=O)/C=C(\O)C(F)(F)C(F)(F)F)cn1 [7g, 4,4,5,5,5-Pentafluoro-3-hydroxy-1-(6-(pentylamino)pyridin-3-yl)pent-2-en-1-one]	0.39 ± 0.03		0.013 ± 0.001				37	12	6	
COCCCNc1ccc(C(=O)/C=C(\O)C(F)(F)C(F)(F)F)cn1 [7h, 4,4,5,5,5-Pentafluoro-3-hydroxy-1-(6-((3-methoxypropyl)amino)pyridin-3-yl)pent-2-en-1-one]	0.16 ± 0.01		0.055 ± 0.006				65		17	
O=C(/C=C(\O)C(F)(F)C(F)(F)F)c1ccc(NCC(F)(F)F)nc1 [7i, 4,4,5,5,5-Pentafluoro-3-hydroxy-1-(6-((2,2,2-trifluoroethyl)amino)pyridin-3-yl)pent-2-en-1-one]	0.21 ± 0.02		0.024 ± 0.006				71	38	9	
CC(C)CNc1ccc(C(=O)/C=C(\O)C(F)(F)C(F)(F)F)cn1 [7j, 4,4,5,5,5-Pentafluoro-3-hydroxy-1-(6-(isobutylamino)pyridin-3-yl)pent-2-en-1-one]	0.28 ± 0.03		0.03 ± 0.003				61	17	11	
O=C(/C=C(\O)C(F)(F)C(F)(F)F)c1ccc(NC2CC2)nc1 [7k, 1-(6-(Cyclopropylamino)pyridin-3-yl)-4,4,5,5,5-pentafluoro-3-hydroxypent-2-en-1-one]	0.19 ± 0.02		0.01 ± 0.002				44	11	5	
O=C(/C=C(\O)C(F)(F)C(F)(F)F)c1ccc(NC2CCC2)nc1 [7l, 1-(6-(Cyclobutylamino)pyridin-3-yl)-4,4,5,5,5-pentafluoro-3-hydroxypent-2-en-1-one]	0.26 ± 0.03		0.023 ± 0.007				59	16	7	
O=C(/C=C(\O)C(F)(F)C(F)(F)F)c1ccc(N2CCNCC2)nc1 [7t, 4,4,5,5,5-Pentafluoro-3-hydroxy-1-[6-(piperazin-1-yl)pyridin-3-yl]pent-2-en-1-one]	17.3 ± 6.5		0.858 ± 0.129							
